Data on 1 compound can be found in patent publication US20230149504A1, “A[…] USE IN HUMAN VIRAL INFECTIONS” (DEBIOPHARM INTERNATIONAL SA, priority 2020, published 2023).

Data set [1] relates to SARS-CoV-2. The data set is described as follows: Example 1B: immunofluorescence (anti-dsRNA) quantification of SARS-CoV-2-infected Vero E6 cells. The class given is cell-based. The note with it: at 10 μM, MOI 0.4, 24 h (FIG. 3). How it is done:
FIG. 3 represents the experiment scheme of a SARS-CoV-2 infection of Vero E6 cells at an MOI of 0.4 and the percentage of infected cells assessed by immunofluorescence (IF) in the presence of increasing concentrations of alisporivir.
The anti-SARS-CoV-2 effectiveness of alisporivir was confirmed by immunofluorescence. Vero E6 cells were infected by SARS-CoV-2 at an MOI of 0.4 for 2 h in the presence of increasing concentrations of alisporivir (1, 5 and 10 μM). After virus removal, infected cells were incubated for 24 h in the presence of alisporivir and immunostained with an anti-double-stranded-RNA (dsRNA) antibody. Infected cells were quantified using ImageJ software.

The subject of data set [2] is SARS-Cov-2 (isolate from patient infected in Paris).
Data set [3] has as its system VeroE6 cells.
Data set [4] relates to clinical isolate of SARS-CoV-2.
Data set [5] relates to SARS-Cov-1. The note with it: cited from earlier work.
Data set [6] can be described thus: in vitro. The note with it: African green monkey.
Data set [7] can be described thus: in vitro. The note with it: African green monkey. This is another data set of the same source.

Each structure is given as a SMILES string.

As for `C/C=C/C[C@@H](C)[C@@H](O)[C@H]1C(=O)N[C@@H](CC)C(=O)N(C)[C@H](C)C(=O)N(CC)[C@@H](C(C)C)C(=O)N[C@@H](C(C)C)C(=O)N(C)[C@@H](CC(C)C)C(=O)N[C@@H](C)C(=O)N[C@H](C)C(=O)N(C)[C@@H](CC(C)C)C(=O)N(C)[C@@H](CC(C)C)C(=O)N(C)[C@@H](C(C)C)C(=O)N1C` [alisporivir, [D-MeAla]3-[EtVal]4-CsA], the “inhibition of the number of SARS-CoV-2-infected cells (immunofluorescence)” value in data set [1] is recorded as “complete inhibition”. Moreover, the EC50 in data set [2] was 540 nM; in data set [4] (clinical isolate of, 48 h), 460 nM; in data set [5] (read-out: EC50 in vitro against different SARS-Cov-1), 2000 to 10000 nM. Further, in data set [2], the “percentage of inhibition of SARS-CoV-2 RNA production in cell culture supernatant” value was over 90%. In addition, the cytotoxicity result in data set [3] is “not cytotoxic”. Moreover, the “maximum viral RNA reduction” value in data set [4] came to 2 log 10. Further, the therapeutic index entry in data set [4] (clinical isolate of, 2 h) is “more than 43”. The compound further showed an EC90 in data set [4] (clinical isolate of, 48 h) of 3100 nM. The “fold higher EC50 against SARS-Cov-1 than for HCV replicon” value in data set [5] is 10.-50 fold. The selectivity ratio in data set [6] was over 37. In data set [7], this compound showed a CC50 of over 20000 nM.
